According to patent US20240050428A1 (Cullgen (Shanghai), Inc., priority 2020, published 2024):
Read-outs that look alike come from different tables or passages of the source.

Tests used:
MOLM-13 cells = assay: Cell viability assay (CellTiter-Glo) in MOLM-13 cells, alone or with gilteritinib; assay type: cell-based; conditions: Homo sapiens, MOLM-13 cells, CellTiter-Glo
MV4;11 cells = assay: Cell viability assay (CellTiter-Glo) in MV4;11 cells, alone or with gilteritinib; assay type: cell-based; conditions: Homo sapiens, MV4;11 cells, CellTiter-Glo, read-out: MV4
[1] = MOLM-13, 72 h, compound alone (without gilteritinib), three days, read-out: MOLM-13 IC50
[2] = MOLM-13, 72 h, with gilteritinib 20 nM, three days, read-out: MOLM-13 IC50 gilteritinib
[3] = MV4-11, 72 h, compound alone (without gilteritinib), three days, 11 IC50
[4] = MV4-11, 72 h, with gilteritinib 10 nM, three days, 11 IC50 gilteritinib
[5] = MOLM-13, 72 h, compound with gilteritinib 20 nM, three days, read-out: MOLM-13 IC50 gilteritinib
[6] = MV4-11, 72 h, compound with gilteritinib 10 nM, three days, 11 IC50 gilteritinib

| SMILES | IC50 (MOLM-13 cells; [1]) [nM] | IC50 (MOLM-13 cells; [2]) [nM] | IC50 (MV4;11 cells; [3]) [nM] | IC50 (MV4;11 cells; [4]) [nM] | IC50 (MOLM-13 cells; [5]) [nM] | IC50 (MV4;11 cells; [6]) [nM] | further results |
| --- | --- | --- | --- | --- | --- | --- | --- |
| O=C1CCC(N2Cc3ccc(CCCCCC(=O)N4CCC(c5ccc(Cl)cc5)CC4)cc3C2=O)C(=O)N1 (centres unmarked) [GS-114, 3-(6-(6-(4-(4-Chlorophenyl)piperidin-1-yl)-6-oxohexyl)-1-oxoisoindolin-2-yl)piperidine-2,6-dione] | – | – | – | – | – | – | IC50 (MOLM-13 cells; 72 h, compound alone (without gilteritinib), three days, read-out: MOLM-13 IC50): 100 to 1000 nM; IC50 (MOLM-13 cells; 72 h, with gilteritinib 20 nM, three days, read-out: MOLM-13 IC50 gilteritinib): 10 to 100 nM; IC50 (MV4;11 cells; 72 h, compound alone (without gilteritinib), three days, 11 IC50): 100 to 1000 nM; IC50 (MV4;11 cells; 72 h, with gilteritinib 10 nM, three days, 11 IC50 gilteritinib): 10 to 100 nM |
| O=C1CCC(N2C(=O)c3ccc(NCCC[C@H]4C[C@@H](n5cc(-c6cnc7cc(C8CCOCC8)ccc7n6)cn5)C4)cc3C2=O)C(=O)N1 (stereo partly drawn) [GS-430, 2-(2,6-dioxopiperidin-3-yl)-5-((3-(cis-3-(4-(6-(tetrahydro-2H-pyran-4-yl)quinoxalin-2-yl)-1H-pyrazol-1-yl)cyclobutyl)propyl)amino)isoindoline-1,3-dione] | > 1000 | – | 100 to 1000 | – | 10 to 100 | 10 to 100 | – |
| O=C1CCC(N2C(=O)c3ccc(NCCC[C@H]4C[C@@H](n5cc(-c6cnc7ccccc7n6)cn5)C4)cc3C2=O)C(=O)N1 (stereo partly drawn) [GS-177, 2-(2,6-Dioxopiperidin-3-yl)-5-((3-(cis-3-(4-(quinoxalin-2-yl)-1H-pyrazol-1-yl)cyclobutyl)propyl)amino)isoindoline-1,3-dione] | > 1000 | 10 to 100 | > 1000 | 100 to 1000 | – | – | – |
| O=C1CCC(N2C(=O)c3ccc(NC[C@H]4C[C@H](n5cc(-c6cccc(NC7CNC7)n6)c(C6CC6)n5)C4)cc3C2=O)C(=O)N1 (stereo partly drawn) [GS-274, 5-(((trans-3-(4-(6-(Azetidin-3-ylamino)pyridin-2-yl)-3-cyclopropyl-1H-pyrazol-1-yl)cyclobutyl)methyl)amino)-2-(2,6-dioxopiperidin-3-yl)isoindoline-1,3-dione] | > 1000 | > 1000 | > 1000 | > 1000 | – | – | – |
| O=C1CCC(N2Cc3c(Nc4ccnc(Nc5ccc(N6CCC(n7cc(-c8cnc9cccc(Br)c9n8)cn7)CC6)cc5)n4)cccc3C2=O)C(=O)N1 (centres unmarked) [GS-026, 3-(4-((2-((4-(4-(4-(8-Bromoquinoxalin-2-yl)-1H-pyrazol-1-yl)piperidin-1-yl)phenyl)amino)pyrimidin-4-yl)amino)-1-oxoisoindolin-2-yl)piperidine-2,6-dione] | > 1000 | > 1000 | > 1000 | > 1000 | – | – | – |
| O=C(CCCC(=O)N1CCC(n2cc(-c3cnc4cccc(Br)c4n3)cn2)CC1)NCc1ccc2c(c1)CN(C1CCC(=O)NC1=O)C2=O (centres unmarked) [GS-021, 5-(4-(4-(8-Bromoquinoxalin-2-yl)-1H-pyrazol-1-yl)piperidin-1-yl)-N-((2-(2,6-dioxopiperidin-3-yl)-1-oxoisoindolin-5-yl)methyl)-5-oxopentanamide] | – | – | – | – | – | – | IC50 (MOLM-13 cells; MOLM-13, 72 h, with 20 nM gilteritinib, 3 days, read-out: MOLM-13 IC50 gilteritinib): 111 nM; IC50 (MOLM-13 cells; MOLM-13, 72 h, without gilteritinib, 3 days, read-out: MOLM-13 IC50): 82 nM; IC50 (MV4;11 cells; MV4-11, 72 h, with 10 nM gilteritinib, 3 days, 11 IC50 gilteritinib): 44 nM; IC50 (MV4;11 cells; MV4-11, 72 h, without gilteritinib, 3 days, 11 IC50): 3130 nM |
| O=C1CCC(N2C(=O)c3ccc(NC[C@H]4C[C@H](n5cc(-c6ccncc6)c(C6CC6)n5)C4)cc3C2=O)C(=O)N1 (stereo partly drawn) [GS-265, 5-(((trans-3-(3-Cyclopropyl-4-(pyridin-4-yl)-1H-pyrazol-1-yl)cyclobutyl)methyl)amino)-2-(2,6-dioxopiperidin-3-yl)isoindoline-1,3-dione] | > 1000 | 100 to 1000 | > 1000 | 100 to 1000 | – | – | – |
| O=C1CCC(N2Cc3c(Nc4ccnc(NCCC(=O)N5CCC(n6cc(-c7cnc8ccccc8n7)cn6)CC5)n4)cccc3C2=O)C(=O)N1 (centres unmarked) [GS-085, 3-(1-Oxo-4-((2-((3-oxo-3-(4-(4-(quinoxalin-2-yl)-1H-pyrazol-1-yl)piperidin-1-yl)propyl)amino)pyrimidin-4-yl)amino)isoindolin-2-yl)piperidine-2,6-dione] | > 1000 | > 1000 | > 1000 | > 1000 | – | – | – |
| O=C1CCC(N2C(=O)c3ccc(NCCC[C@H]4C[C@H](n5ccc(C6CC6)n5)C4)cc3C2=O)C(=O)N1 (stereo partly drawn) [GS-591, 5-((3-(trans-3-(3-Cyclopropyl-1H-pyrazol-1-yl)cyclobutyl)propyl)amino)-2-(2,6-dioxopiperidin-3-yl)isoindoline-1,3-dione] | > 1000 | – | > 1000 | – | 100 to 1000 | 100 to 1000 | – |

More lines, main results first:

| IC50 (MOLM-13 cells; [1]) [nM] | IC50 (MOLM-13 cells; [2]) [nM] | IC50 (MV4;11 cells; [3]) [nM] | IC50 (MV4;11 cells; [4]) [nM] | IC50 (MOLM-13 cells; [5]) [nM] | IC50 (MV4;11 cells; [6]) [nM] | SMILES | further results |
| --- | --- | --- | --- | --- | --- | --- | --- |
| > 1000 | 10 to 100 | > 1000 | > 1000 | – | – | O=C1CCC(N2C(=O)c3ccc(NCCCCC4(N5CCC(n6cc(-c7cnc8ccccc8n7)cn6)CC5)CC4)cc3C2=O)C(=O)N1 (centres unmarked) [GS-124, 2-(2,6-Dioxopiperidin-3-yl)-5-((4-(1-(4-(4-(quinoxalin-2-yl)-1H-pyrazol-1-yl)piperidin-1-yl)cyclopropyl)butyl)amino)isoindoline-1,3-dione] | – |
| > 1000 | – | 100 to 1000 | – | < 10 | < 10 | Cc1nn(CCCCCCNc2ccc3c(c2)C(=O)N(C2CCC(=O)NC2=O)C3=O)c(C)c1-c1cnc2ccccc2n1 (centres unmarked) [GS-510, 5-((6-(3,5-Dimethyl-4-(quinoxalin-2-yl)-1H-pyrazol-1-yl)hexyl)amino)-2-(2,6-dioxopiperidin-3-yl)isoindoline-1,3-dione] | – |
| > 1000 | 100 to 1000 | > 1000 | 100 to 1000 | – | – | CNc1ccc(-c2cn([C@H]3C[C@H](CNc4ccc5c(c4)C(=O)N(C4CCC(=O)NC4=O)C5=O)C3)nc2C2CC2)nc1 (stereo partly drawn) [GS-301, 5-(((trans-3-(3-Cyclopropyl-4-(5-(methylamino)pyridin-2-yl)-1H-pyrazol-1-yl)cyclobutyl)methyl)amino)-2-(2,6-dioxopiperidin-3-yl)isoindoline-1,3-dione] | – |
| < 10 | < 10 | < 10 | < 10 | – | – | O=C1CCC(N2C(=O)c3ccc(NC[C@H]4C[C@H](n5cc(-c6ncccc6C(F)(F)F)c(C6CC6)n5)C4)cc3C2=O)C(=O)N1 (stereo partly drawn) [GS-277, 5-(((trans-3-(3-Cyclopropyl-4-(3-(trifluoromethyl)pyridin-2-yl)-1H-pyrazol-1-yl)cyclobutyl)methyl)amino)-2-(2,6-dioxopiperidin-3-yl)isoindoline-1,3-dione] | – |
| 100 to 1000 | – | 100 to 1000 | – | 10 to 100 | 10 to 100 | O=C1CCC(N2C(=O)c3ccc(NC[C@H]4C[C@H](n5cc(-c6ccccn6)c(C6CC6)n5)C4)cc3C2=O)C(=O)N1 (stereo partly drawn) [GS-595, 5-(((trans-3-(3-Cyclopropyl-4-(pyridin-2-yl)-1H-pyrazol-1-yl)cyclobutyl)methyl)amino)-2-(2,6-dioxopiperidin-3-yl)isoindoline-1,3-dione] | – |
| 100 to 1000 | < 10 | 10 to 100 | < 10 | – | – | CN1CCN(c2cccc3nc(-c4cnn([C@H]5C[C@H](CCCNc6ccc7c(c6)C(=O)N(C6CCC(=O)NC6=O)C7=O)C5)c4)cnc23)CC1 (stereo partly drawn) [GS-404, 2-(2,6-Dioxopiperidin-3-yl)-5-((3-(trans-3-(4-(5-(4-methylpiperazin-1-yl)quinoxalin-2-yl)-1H-pyrazol-1-yl)cyclobutyl)propyl)amino)isoindoline-1,3-dione] | – |
| 10 to 100 | – | 10 to 100 | – | < 10 | 10 to 100 | O=C1CCC(N2C(=O)c3ccc(NCCCCCCn4cc(-c5cnc6ccc(C(F)(F)F)cc6n5)cn4)cc3C2=O)C(=O)N1 (centres unmarked) [GS-559] | – |
| 10 to 100 | < 10 | 10 to 100 | < 10 | – | – | Cc1nn(CCCCCCNc2ccc3c(c2)C(=O)N(C2CCC(=O)NC2=O)C3=O)c(C)c1-c1cnc2cccc(C#N)c2n1 (centres unmarked) [GS-166, 3-(1-(6-((2-(2,6-Dioxopiperidin-3-yl)-1,3-dioxoisoindolin-5-yl)amino)hexyl)-3,5-dimethyl-1H-pyrazol-4-yl)quinoxaline-5-carbonitrile] | – |
| 10 to 100 | – | 10 to 100 | – | < 10 | < 10 | O=C1CCC(N2C(=O)c3ccc(NCCCCCCn4cc(-c5cnc6ccc(C7=CCNCC7)cc6n5)cn4)cc3C2=O)C(=O)N1 (centres unmarked) [GS-531, 2-(2,6-Dioxopiperidin-3-yl)-5-((6-(4-(7-(1,2,3,6-tetrahydropyridin-4-yl)quinoxalin-2-yl)-1H-pyrazol-1-yl)hexyl)amino)isoindoline-1,3-dione] | – |
| 100 to 1000 | – | 10 to 100 | – | 10 to 100 | < 10 | CNC(=O)c1nn([C@H]2C[C@H](CNc3ccc4c(c3)C(=O)N(C3CCC(=O)NC3=O)C4=O)C2)cc1-c1cccc(C)n1 (stereo partly drawn) [GS-637, 1-(trans-3-(((2-(2,6-dioxopiperidin-3-yl)-1,3-dioxoisoindolin-5-yl)amino)methyl)cyclobutyl)-N-methyl-4-(6-methylpyridin-2-yl)-1H-pyrazole-3-carboxamide] | – |
| < 10 | < 10 | < 10 | < 10 | – | – | O=C1CCC(N2C(=O)c3ccc(NC[C@H]4C[C@H](n5cc(-c6nccc7cccnc67)c(C6CC6)n5)C4)cc3C2=O)C(=O)N1 (stereo partly drawn) [GS-286, 5-(((trans-3-(3-Cyclopropyl-4-(1,7-naphthyridin-8-yl)-1H-pyrazol-1-yl)cyclobutyl)methyl)amino)-2-(2,6-dioxopiperidin-3-yl)isoindoline-1,3-dione] | – |
